Columns and labels:
[1] = tested on: TCF/LEF promoter activity in PC-3 cells; test: TCF/LEF luciferase reporter assay (pGL3-OT/pGL3-OF); assay type: cell-based
Description: FIG. 28 depicts effect of CT on TCF/LEF promoter activity in PC-3 cells with various compounds added with CT. Cells were seeded into 6-well plates and transfected with the pGL3-OT luciferase/pRL-tK plasmids or pGL3-OF-luciferase/pRL-TK plasmids. The cells were then incubated in complete medium for 48 h, after which they were serum-starved for 16 h. The cells were then treated with CT and/or PMH compounds, and the cell lysates analyzed for luciferase activity. The results are expressed as relative light units (RLU) after normalization with Renilla luciferase activity. The experiment was repeated three separate times, and results expressed as means±S.E.M.
Certain hydantoin-like molecules isolated from sea sponge have been identified that could inhibit prostate cell metastasis (Shah et al., 2009; Mudit et al., 2011). Disruption of junctional complex stabilizes intracellular β-catenin, leading to its translocation in the nucleus, where it can bind to its partner LEF-1 (lymphocyte enhancer binding factor-1) to transactivate target genes. The transcription of TCF/LEF genes can be quantitated by using luciferase-based reporter plasmids, pGL3-OT and pGL3-OF, the improved version of the Topflash and Fopflash vectors (Shah et al., 2009). This assay can be used to comparatively evaluate junction disrupting activity of multiple compounds in a single assay. […] The two compounds, MRM-6 and MRM-4, derivatives of PMH whose structures are shown below, were obtained from Dr. K. A. El Sayed.

prostate tumor = conditions: Shah et al., 2009; cited from earlier work
protein kinase A (PKA) = test: PKA activity in cell lysates; assay type: cell-based; conditions: 100 nM of mPKI, 10 μM of H-89
Description: The lysates of untreated and CT-treated PC-3CTRwt and PC-3CTRΔESS cells were also used to determine CT-stimulated protein kinase A (PKA) and protein kinase C (PKC) activity (PKA and PKC assay kits, Promega, Madison, Wis.). The manufacturer's instructions were followed.
FIG. 1E depicts the effect of 50 nM CT on PKA activity in cell lysates of untreated and CT-treated PC-3 CTRwt and PC-3 CTRΔESS cells that were incubated with PKA substrate peptide and ^32P-ATP, and also treated with an activator of PKA, forskolin (FSK). FIG. 1F depicts the effect of 50 nM CT on PKC activity in lysates of untreated and CT-treated PC-3 CTRwt and PC-3 CTRΔESS cells that were incubated with PKC substrate peptide and ^32P-ATP, and also treated with an activator of PKC, phorbol 12-myristate 13-acetate (PMA).
To test whether specific PKA inhibitors abrogate CT-induced TJ disassembly, two specific, well-characterized PKA inhibitors, mPKI and H-89, were used. PC-3CTRwt cells were treated with CT (50 nM for 30 min) in the presence of mPKI (100 nM) or H-89 (10 μM). Either of these inhibitors was added 15 min prior to the addition of CT. […] FIG. 16A depicts photo micrographs of PC3-CTRwt cells, CT-stimulated in the presence and absence of mPKI. […]

PC-3-CTR-wt cells = test: Matrigel in vitro invasion assay; assay type: cell-based; conditions: for effect on CT-induced invasion / effect on basal invasion: peptide 50 μM; for effect on CT-induced invasion: CT 50 nM; for effect on basal invasion: no CT
Description: Invasion experiments were conducted in Matrigel™ invasion chambers as previously described (Sabbisetti et al., 2005).
CT increases invasiveness, and even induces an invasive phenotype in non-invasive prostate cancer cells. The role of PDZ-binding motif in CT-stimulated invasion was examined. FIG. 2C depicts CTR-C PDZ-binding motif mutation and effects on cell invasion. PC-3V, PC-3 CTRwt and PC-3 CTRΔESS cells were added to upper insert of invasion chambers with or without 50 nM CT, and cells that passed through the Matrigel™ barrier were counted after 48 h. The results are expressed as mean number of invaded cells per 400× field ±SEM (n=6; *p<0.05 (PC-3V v PC-3CTR-wt); $ p<0.05 (PC-3CTR-wt v PC-3CTRΔESS); $$-p<0.05 (PC-3CTRwt+CT v PC-3CTRΔESS+CT) (one-way ANOVA and Newman-Keul's test)). Expression of CTRwt in PC-3 cells increased invasion by 2.5-fold (FIG. 2C).
(§1) As shown above, CTR binds to ZO-1 through PDZ interaction (i.e. PDZ ligand on C-tail of CTR binds to the PDZ domain of ZO-1). To attenuate this binding, ZO-1 was saturated with a small C-terminal peptide of CTR sequence containing the PDZ-binding motif. Since ZO-1 is an intracellular membrane protein, the interfering peptide was delivered inside the plasma membrane. It has been shown that trans-activating transcriptional activator (TAT) protein (86-mer polypeptide) from HIV-1 enters mammalian cells when added to the surrounding media (Frankel et al., 1988; Green et al., 1989). Certain small regions of such proteins (10-16-mers) called protein transduction domains (PTDs), also efficiently traverse biological membranes (Elliott et al., 1997). Therefore, a fusion peptide Pep 1 was synthesized of TAT-peptide sequences of HIV virus and CTR-C(N-[…]-C (SEQ ID NO:2), CTR-C sequence underlined). The first experiment was to see if Pep I binds to ZO-1 in reversible fashion. For this, amino acid Y in Pep I was labeled with ^125I, and the binding with ZO-1 analyzed in the presence/absence of unlabeled Pep I (1000×; 20 μM). PC-3CTR-ZO-1-MYC cells were first incubated with unlabeled Pep I or control peptide (20 μM) for 5 min. The cells were then incubated with ^125I-pep I or C for 25 min. The cells were then washed in IP buffer, treated with DSP, and lysed. ZO-1 IPs were obtained, fractionated on SDS-PAGE, and autoradiographed. […] Next, whether Pep I competes with CTR for ZO-1 binding was tested. For this, PC-3-CTR-wt cells were treated with CT (50 nM) and or Pep I (50 μM) for 15 min. The CTR IPs were then immunoblotted and probed for ZO-1 immunoreactivity. […] Next, the biological impact of this phenomenon was examined by testing the effect of Pep I on CTR-stimulated invasion.
The binding of ZO-1 and CTR can be attenuated by saturating ZO-1 with a small C-terminal peptide of CTR sequence containing the PDZ ligand. Since ZO-1 is an intracellular membrane protein, the interfering peptide must penetrate plasma membrane to interact with ZO-1. As discussed above, fusion peptides of small TAT peptides (12-mer) and six (Pep I) or eight amino acids (Pep II) of C-terminal of CTR were synthesized. Control peptides were TAT peptides (12-mer) containing random amino acid sequence of equivalent size (6-mer). […] Thus, these two peptides (sequences given below) could be used therapeutically to attenuate or inhibit metastasis in cancerous cells.

ZO-1 = molecular target: T1, ZO-1 (Homo sapiens, UniProt Q07157); test: 125I-Pep I binding to ZO-1 (ZO-1 immunoprecipitation, autoradiography)
T1 construct: expressed in transfected cells; host or cells: PC-3CTR-ZO-1-MYC cells
Description: The cells were then treated with ^125I-TAT-pepI or TAT-C for 25 min. The cell lysates were then immunoprecipitated with Anti-ZO-1 serum, the immunoprecipitates were washed, fractionated on SDS-gel, and then immunoblotted for ZO-1 and autoradiographed.
As shown above, CTR binds to ZO-1 through PDZ interaction (i.e. PDZ ligand on C-tail of CTR binds to the PDZ domain of ZO-1). To attenuate this binding, ZO-1 was saturated with a small C-terminal peptide of CTR sequence containing the PDZ-binding motif. Since ZO-1 is an intracellular membrane protein, the interfering peptide was delivered inside the plasma membrane. It has been shown that trans-activating transcriptional activator (TAT) protein (86-mer polypeptide) from HIV-1 enters mammalian cells when added to the surrounding media (Frankel et al., 1988; Green et al., 1989). Certain small regions of such proteins (10-16-mers) called protein transduction domains (PTDs), also efficiently traverse biological membranes (Elliott et al., 1997). Therefore, a fusion peptide Pep 1 was synthesized of TAT-peptide sequences of HIV virus and CTR-C(N-[…]-C (SEQ ID NO:2), CTR-C sequence underlined). The first experiment was to see if Pep I binds to ZO-1 in reversible fashion. For this, amino acid Y in Pep I was labeled with ^125I, and the binding with ZO-1 analyzed in the presence/absence of unlabeled Pep I (1000×; 20 μM). […]

CTR-ZO-1 interaction = test: CTR-ZO-1 co-immunoprecipitation; assay type: cell-based; conditions: Pep I 50 μM, with or without CT 50 nM, PC-3-CTR-wt cells
Description: Serum-starved PC-31-V, PC-31-CTRwt or PC-31-CTRΔESS cells (2×10^6 per 100 mm dish) were stimulated with or without 50 nM CT for 3 min, washed, and lysed in the IP buffer as previously described (von Zastrow et al., 1994). CTR in normalized lysate proteins was immunoprecipitated with anti-FLAG EZ-view beads (Sigma Chemical Co., St. Louis, Mo.), and eluted with FLAG peptide (600 μg/ml in PBS). CTR immunoprecipitates were processed for ZO-1 immunoblotting. To control for protein loading and transfer, the blots were stripped and reprobed with immunoprecipitating antibody.
PC-31 cells stably expressing either FLAG-CTRwt or FLAGCTRΔESS were treated with or without CT for 3 min. The analysis of FLAG-CTR IPs confirmed that only FLAG-CTRwt, but not FLAG-CTRΔESS, co-precipitated ZO-1 (FIG. 3B). […] The effect of multiple CT concentrations on CTR-ZO-1 co-precipitation was tested in PC-3 cells. […] However, co-precipitation of ZO-1 by CTRwt was strong in PC-3 cells stimulated with 10 nM CT, and was even stronger in the cells receiving 100 nM CT.
as §1

T1 sequence (Q07157 whole entry): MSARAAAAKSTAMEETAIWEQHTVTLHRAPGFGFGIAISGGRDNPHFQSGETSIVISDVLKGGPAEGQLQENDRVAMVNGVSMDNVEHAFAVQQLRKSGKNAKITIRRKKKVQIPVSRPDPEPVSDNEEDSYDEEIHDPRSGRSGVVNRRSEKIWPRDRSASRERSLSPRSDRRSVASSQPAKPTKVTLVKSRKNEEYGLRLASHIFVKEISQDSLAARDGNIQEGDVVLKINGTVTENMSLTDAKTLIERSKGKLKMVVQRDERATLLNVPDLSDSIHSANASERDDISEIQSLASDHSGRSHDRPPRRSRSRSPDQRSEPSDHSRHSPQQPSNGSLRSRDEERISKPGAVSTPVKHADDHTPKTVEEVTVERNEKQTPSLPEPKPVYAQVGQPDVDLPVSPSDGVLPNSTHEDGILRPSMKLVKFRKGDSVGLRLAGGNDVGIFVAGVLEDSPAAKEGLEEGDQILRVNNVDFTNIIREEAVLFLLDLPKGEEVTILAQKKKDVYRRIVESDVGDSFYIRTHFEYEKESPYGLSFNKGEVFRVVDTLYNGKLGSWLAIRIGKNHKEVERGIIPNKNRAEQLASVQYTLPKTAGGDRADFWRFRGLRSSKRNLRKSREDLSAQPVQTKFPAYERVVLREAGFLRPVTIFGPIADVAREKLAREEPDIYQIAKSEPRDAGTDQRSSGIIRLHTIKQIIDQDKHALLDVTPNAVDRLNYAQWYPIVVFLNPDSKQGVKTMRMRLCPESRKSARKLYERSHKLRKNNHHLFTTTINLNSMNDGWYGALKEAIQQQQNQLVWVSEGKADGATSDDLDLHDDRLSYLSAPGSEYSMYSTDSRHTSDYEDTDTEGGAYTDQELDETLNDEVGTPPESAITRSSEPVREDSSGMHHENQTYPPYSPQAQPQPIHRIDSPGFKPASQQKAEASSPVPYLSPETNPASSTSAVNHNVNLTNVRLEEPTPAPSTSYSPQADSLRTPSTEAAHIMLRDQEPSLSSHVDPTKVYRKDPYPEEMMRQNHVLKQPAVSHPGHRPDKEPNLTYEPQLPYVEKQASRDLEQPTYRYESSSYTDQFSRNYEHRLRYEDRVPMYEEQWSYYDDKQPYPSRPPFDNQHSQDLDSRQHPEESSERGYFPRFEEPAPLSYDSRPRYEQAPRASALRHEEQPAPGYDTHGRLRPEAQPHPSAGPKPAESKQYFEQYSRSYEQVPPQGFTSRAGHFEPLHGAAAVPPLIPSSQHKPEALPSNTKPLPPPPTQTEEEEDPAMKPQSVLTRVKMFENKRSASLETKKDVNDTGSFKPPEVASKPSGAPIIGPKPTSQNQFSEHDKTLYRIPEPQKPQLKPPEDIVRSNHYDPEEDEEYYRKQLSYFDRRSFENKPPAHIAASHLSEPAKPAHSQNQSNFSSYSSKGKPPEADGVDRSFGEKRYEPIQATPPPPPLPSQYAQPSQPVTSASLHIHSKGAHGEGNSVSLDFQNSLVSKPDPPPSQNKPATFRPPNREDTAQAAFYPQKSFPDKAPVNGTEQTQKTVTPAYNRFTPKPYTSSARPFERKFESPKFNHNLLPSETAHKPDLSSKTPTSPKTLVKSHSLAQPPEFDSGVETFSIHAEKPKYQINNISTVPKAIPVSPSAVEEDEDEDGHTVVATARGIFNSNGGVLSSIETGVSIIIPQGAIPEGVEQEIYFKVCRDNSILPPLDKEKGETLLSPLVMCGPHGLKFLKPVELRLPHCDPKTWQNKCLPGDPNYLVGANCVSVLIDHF

Compound: Nc1ccc(/C=C2\NC(=O)NC2=O)c(Cl)c1 [MRM-4, (Z)-5-(4-amino-2-chlorobenzylidene)imidazolidine-2,4-dione]
- potency relative to PMH and S-PMH in blocking CTR-ZO-1 interaction-mediated TCF/LEF activity [1]: more potent
- potency relative to PMH in inhibiting CT action ([1]; with 50 nM CT): significantly more potent than PMH

Compound: O=C1NC(=O)/C(=C/c2ccc(/C=C3/NC(=O)NC3=O)cc2)N1 [MRM-6, (5Z,5′E)-5,5′-(1,4-phenylenebis(methan-1-yl-1-ylidene))diimidazolidine-2,4-dione]
- potency relative to PMH and S-PMH in blocking CTR-ZO-1 interaction-mediated TCF/LEF activity [1]: more potent
- potency relative to PMH in inhibiting CT action ([1]; with 50 nM CT): significantly more potent than PMH

Compound: O=C1NC(=O)/C(=C/c2ccccc2)N1 [PMH, phenyl-methylene hydrantoin]
- cell-cell adhesion, prostate tumor growth and metastasis (prostate tumor): enhance cell-cell adhesion and attenuate prostate tumor growth and metastasis
- effect on CT-stimulated luciferase activity ([1]; with 50 nM CT): decreased it remarkably

Compound: O=S(=O)(NCCNC/C=C/c1ccc(Br)cc1)c1cccc2cnccc12 [Pep H-89]
- effect on CT-stimulated PKA activity (protein kinase A (PKA)): completely abolished

Compound: CCSC1=N/C(=C\c2ccccc2)C(=O)N1 [S-PMH]
- cell-cell adhesion, prostate tumor growth and metastasis (prostate tumor): enhance cell-cell adhesion and attenuate prostate tumor growth and metastasis

Compound: N-EQESSAAYGRKKRRQRRR-C [Pep I]
- relative potency as antagonist of CT-induced invasion (PC-3-CTR-wt cells; Pep I versus Pep II, 50 μM): the more potent antagonist
- effect on CT-induced invasion (PC-3-CTR-wt cells): significantly attenuated
- effect on CT-induced invasion (PC-3-CTR-wt cells; listed as TAT-pepI): attenuate
- effect on basal invasion (PC-3-CTR-wt cells): neither the control peptide nor Pep I (50 μM) significantly affected
- effect on basal invasion (PC-3-CTR-wt cells; listed as PepI): did not significantly affect
- binding to ZO-1 (co-IP of 125I-labeled peptide) (ZO-1; PC-3CTR-ZO-1-MYC cells, 25 min): bound to ZO-1
- binding of 125I-Pep I to ZO-1 in the presence of unlabeled Pep I (ZO-1; unlabeled Pep I 1000×, 20 μM): almost abolished
- effect on CTR-ZO-1 co-precipitation (CTR-ZO-1 interaction): markedly diminished

Compound: N-IIEQESSAYGRKKRRQRRR-C [Pep II]
- effect on CT-induced invasion (PC-3-CTR-wt cells): significantly attenuated
- effect on CT-induced invasion (PC-3-CTR-wt cells; listed as pepII): attenuate
- effect on basal invasion (PC-3-CTR-wt cells): did not significantly affect

Reference: patent US9765115B2, “Inhibitors of metastasis, methods of generating such inhibitors and their therapeutic applications” (Board of Supervisors of Louisiana State University acting …, priority 2011, dated 2017)
